Molecules are shown by their SMILES.

For this experiment, the target named is T1, Clostridium hystolyticum collagenase (EC.3.4.23.3).
T1 construct: gene colH
Kind of experiment: FALGPA hydrolysis, absorbance at […] nm. The following applies: FALGPA substrate (2 mM stock), 50 mM Tricine, 10 mM CaCl2, 400 mM NaCl, pH 7.5, 15 min preincubation. Type of experiment: biochemical, Hathewaya histolytica.

Consider `O=C(O[C@@H]1Cc2c(O)cc(O)cc2O[C@@H]1c1cc(O)c(O)c(O)c1)c1cc(O)c(O)c(O)c1` [EGCG], for which the midpoint of inhibition, the IC50, lay at 9.45 ± 0.5 µM.

These data come from article PMC4213485, “Relevant and selective activity of Pancratium illyricum L. against Candida albicans clinical isolates: a combined effect on yeast growth and virulence” (BMC Complementary and Alternative Medicine, 2014).
